This passage reports TGI results from PubChem BioAssay (NCI).

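The compound was tested at five concentrations on cells cultured in 96-well plates, with a 48-hour exposure period. TGI: total growth inhibition.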

Test systems include KM12 colon; SK-OV-3 ovarian; NCI-H226 lung; ACHN renal; IGROV1 ovarian; SN12C renal; CAKI-1 renal; NCI-H23 lung; EKVX NSCLC; SW-620 colon; RPMI-8226 leukemia; HL-60(TB) leukemia.
Holding throughout (assay): inhibition of tumour cell growth, NCI panel, 48 h

As to `CCCCCCCCC/C=C1/CC(CO)(COC(=O)c2ccccc2)OC1=O` (configuration not stated), the TGI with KM12 colon is 30.6 µM; in the experiment with SK-OV-3 ovarian, 36 µM; in the experiment on NCI-H226 lung it was 22.9 µM; in the experiment on ACHN renal, 24.9 µM; in the experiment with IGROV1 ovarian, 29.6 µM; with SN12C renal, 26.4 µM. The TGI with CAKI-1 renal turned out to be 24.8 µM; in the experiment with NCI-H23 lung it was 28.3 µM; in the experiment with EKVX NSCLC, 28.2 µM; in the experiment with SW-620 colon, 27.4 µM.

`N#Cc1c(N2CCN(c3ccc([N+](=O)[O-])cc3)CC2)[n+](=O)c2ccccc2n1[O-]`: the TGI with KM12 colon, in the experiment on SK-OV-3 ovarian, in the experiment on ACHN renal, in the experiment with IGROV1 ovarian, with SN12C renal and with CAKI-1 renal was over 100 µM each time. Also, the TGI in the experiment with NCI-H23 lung, in the experiment on RPMI-8226 leukemia, in the experiment with EKVX NSCLC and with SW-620 colon was over 100 µM throughout.

For `Cn1c(N=P(c2ccccc2)(c2ccccc2)c2ccccc2)c([N+](=O)[O-])c(=O)n(C)c1=O`, the TGI was 80.4 µM with KM12 colon; over 100 µM with SK-OV-3 ovarian; over 100 µM in the experiment on NCI-H226 lung; over 100 µM in the experiment with ACHN renal; over 100 µM with IGROV1 ovarian; over 100 µM in the experiment on SN12C renal. Also, the TGI in the experiment with CAKI-1 renal, with NCI-H23 lung, in the experiment on RPMI-8226 leukemia, in the experiment with EKVX NSCLC and in the experiment with SW-620 colon was over 100 µM each time.

Consider `COc1ccc(/C(=N\Nc2ccccn2)c2ccccn2)cc1`, for which the TGI in the experiment with KM12 colon is over 32.3 µM; in the experiment on SK-OV-3 ovarian, 10.1 µM; with ACHN renal, 2.81 µM; in the experiment with HL-60(TB) leukemia it was 18.4 µM; in the experiment with IGROV1 ovarian, 7.89 µM; in the experiment on SN12C renal it was over 100 µM. The TGI with CAKI-1 renal amounted to 22.6 µM; with NCI-H23 lung, 9.55 µM; in the experiment on RPMI-8226 leukemia it was 3.85 µM; in the experiment with EKVX NSCLC it was 13.6 µM; in the experiment on SW-620 colon, 30.4 µM.

Turning to `Cn1c(=O)c(Cl)c(N=[N+]=[N-])c2ccccc21`, the TGI in the experiment with KM12 colon, in the experiment on SK-OV-3 ovarian, in the experiment with NCI-H226 lung, with ACHN renal, with IGROV1 ovarian and with SN12C renal was over 100 µM throughout. Moreover, the TGI with CAKI-1 renal, in the experiment with NCI-H23 lung, in the experiment with EKVX NSCLC and with SW-620 colon was over 100 µM in each case.

Consider `CC1=C2C3OC(=O)C(C)C3CCC2(C)C=CC1=Nc1ccccc1` (configuration not stated), for which the TGI in the experiment on KM12 colon, with SK-OV-3 ovarian, in the experiment on NCI-H226 lung, in the experiment on HL-60(TB) leukemia, in the experiment with IGROV1 ovarian and with SN12C renal was over 100 µM throughout. For the same molecule, the TGI with NCI-H23 lung, in the experiment on EKVX NSCLC and in the experiment with SW-620 colon was over 100 µM in each case.

As for `CC1=CCC2CC1NC(=O)CCOCCC(=O)NC2(C)C` (configuration not stated), the TGI with KM12 colon, with SK-OV-3 ovarian, in the experiment on NCI-H226 lung, with ACHN renal, with SN12C renal and in the experiment with CAKI-1 renal was over 100 µM each time. The TGI with NCI-H23 lung, in the experiment with RPMI-8226 leukemia and in the experiment on SW-620 colon was over 100 µM throughout.

In the case of `Clc1c2ccccc2nc2c1[nH]c1ccccc12`, the TGI was 22.2 µM with KM12 colon; over 100 µM in the experiment with ACHN renal; 41.4 µM in the experiment on HL-60(TB) leukemia; over 100 µM in the experiment with IGROV1 ovarian; over 100 µM with SN12C renal; 65.2 µM with CAKI-1 renal. The TGI was over 100 µM in the experiment on NCI-H23 lung, 68.2 µM in the experiment with RPMI-8226 leukemia, over 100 µM with EKVX NSCLC and over 100 µM in the experiment with SW-620 colon.

For `CCCNC(=O)N(C)C(=O)N1N=C(c2ccccc2)C1c1ccccc1` (configuration not stated), the TGI with KM12 colon, in the experiment on SK-OV-3 ovarian, in the experiment with NCI-H226 lung, in the experiment on ACHN renal, in the experiment with IGROV1 ovarian and in the experiment on SN12C renal was over 100 µM throughout. Also, the TGI in the experiment with CAKI-1 renal, with NCI-H23 lung, in the experiment with RPMI-8226 leukemia, in the experiment with EKVX NSCLC and with SW-620 colon was over 100 µM each time.

With `Cc1nnc(Sc2nc(C#N)c(C#N)nc2Sc2nnc(C)s2)s1`, the TGI in the experiment with KM12 colon was over 72 µM; with SK-OV-3 ovarian, 34.2 µM; with NCI-H226 lung it was 64.1 µM; in the experiment with ACHN renal, 8.08 µM; in the experiment with HL-60(TB) leukemia it was 8.83 µM; with IGROV1 ovarian, 21.3 µM. For the same molecule, the TGI in the experiment with SN12C renal was 26.4 µM; in the experiment with NCI-H23 lung, 49.8 µM; with EKVX NSCLC, over 73.6 µM.

Turning to `COC(=O)C1=C(CCC[C@H](C)O[Si](C)(C)C(C)(C)C)NC(=O)N2[C@@H](CCO)CC[C@H]12`, the TGI stood at 51.2 µM in the experiment with KM12 colon; 30.4 µM in the experiment on SK-OV-3 ovarian; 32.4 µM with NCI-H226 lung; 30.3 µM in the experiment on ACHN renal; 31.8 µM in the experiment on IGROV1 ovarian; 29.2 µM with SN12C renal. Further, the TGI in the experiment with CAKI-1 renal was 37.9 µM; in the experiment on NCI-H23 lung, 27.2 µM; with RPMI-8226 leukemia, 53.6 µM; with EKVX NSCLC it was 26.1 µM; in the experiment on SW-620 colon, 42.5 µM.

In the case of `CCCCc1c2c(c(C)c3c1C(=O)OC3)Oc1ccccc1O2`, the TGI in the experiment with KM12 colon was over 100 µM; in the experiment on SK-OV-3 ovarian it was over 100 µM; in the experiment with NCI-H226 lung, over 81.1 µM; with ACHN renal, over 100 µM; in the experiment with IGROV1 ovarian, over 100 µM; in the experiment with SN12C renal, 38.3 µM. In addition, the TGI in the experiment on CAKI-1 renal is over 100 µM; with NCI-H23 lung, over 100 µM; in the experiment with RPMI-8226 leukemia it was over 24.5 µM; in the experiment on EKVX NSCLC, over 100 µM; in the experiment with SW-620 colon, over 42 µM.

For the molecule `Cc1cc2nc(N3C(=O)/C(=C/c4ccc(N(C)C)cc4)N=C3c3ccccc3)sc2cc1C`, the TGI was over 100 µM in the experiment with KM12 colon; over 100 µM with SK-OV-3 ovarian; 62.4 µM in the experiment on ACHN renal; 46.2 µM with HL-60(TB) leukemia; over 100 µM in the experiment with IGROV1 ovarian; 57.8 µM in the experiment with SN12C renal. For the same molecule, the TGI in the experiment with CAKI-1 renal, in the experiment with RPMI-8226 leukemia, with EKVX NSCLC and in the experiment on SW-620 colon was over 100 µM each time.
